Reference: patent US7235548B2, “Compounds and their use as positive AMPA receptor modulators” (NeuroSearch A/S, priority 1998, dated 2007)

System: NMRI mice
Assay: Passive avoidance (associative memory)
Assay type: in vivo, mouse
Conditions: mice pre-treated before training, test after 24 hours; different concentrations; FIG. 17
Method: PURPOSE: To test the pharmacological effect of compounds on associative memory.
PRINCIPLE: A Mouse is placed in a light compartment with access to a dark compartment. If it enter the dark compartment it will receive a foot-shock (0.4 mA). After a delay (24 hours) the association to risk an unpleasant foot-shock by re-entering the dark compartment is tested.
ANIMALS: Female NMRI mice (Bomholdtgaard, DK) weighing 22–25 g were used. The mice were kept in Macrolon plastic cages with free access to food (Altromin, DK) and tap water. The mice were habituated to the laboratory for at least 3 days before testing (light on 7:00am/light off 7:00 pm).
EQUIPMENT: The passive avoidance apparatus consisted of a modular test chambers (ENV-307, MED-Associates, US). The light and the dark compartment consisted of plexiglas boxes of equal size (15×17×13 cm; width×length×height) with metal grid floors. A sliding guillotine door was located at the aperture (4×4 cm) connecting the two compartments. […]
[…]: Entry latency (sec) to re-enter the dark compartment was measured. […]
Training: One mouse is placed in the light compartment and the guillotine door to the dark compartment is opened. […] Test: After a delay (24 hours) the mouse will re-enter the light compartment and time latency to enter the dark compartment is measured with a time limit at 2 minutes. […]

In the case of `CN1CCN(S(=O)(=O)c2ccc3c(c2)S(=O)(=O)NC(C2CCCCC2)N3)CC1` (stereo not shown) [Compound 61, 3-Cyclohexyl-7-(4′-methylpiperazino)sulfonyl-1,2,3,4-tetrahydro-1,2,4-benzothiadiazine-1,1-dioxide], the “entry latency to re-enter the dark compartment (memory)” value is reported as “memory enhancing effect”.
